Laboratory results from publication PMC3433708, “Structural Basis for Specific Recognition of Substrates by Sapovirus Protease” (Frontiers in Microbiology, 2012).
pIC50: −log10 of the molar value.

Target: T1, SaV protease (3C-like protease domain of NS6-7, Pro^wt) (Sapovirus Mc10, UniProt Q6XDK8)
T1 construct: gene ORF1; partial ORF1 polyprotein NS6-7-VP1 with functional protease, made by coupled in vitro transcription/translation in rabbit reticulocyte lysate, not purified; protease domain 146 residues; from ORF1 polyprotein of 2278 residues
Assay: in vitro trans cleavage assay, […]-labelled ORF1 polyprotein (Pro^mut), SDS-PAGE, NS4-NS5 band
Type: biochemical

T1 sequence (Q6XDK8 1056-1201): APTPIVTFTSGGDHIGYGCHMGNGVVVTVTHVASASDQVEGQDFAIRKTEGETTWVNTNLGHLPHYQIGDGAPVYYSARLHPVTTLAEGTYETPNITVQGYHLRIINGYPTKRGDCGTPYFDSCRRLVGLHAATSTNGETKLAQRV

| Structure (SMILES) | pIC50 |
| --- | --- |
| Cc1ccc(C)n1C(CC(=O)O)c1ccc(OCc2ccccc2)cc1 (stereo not drawn) [compound 116, Compound No.116] | 4.74 |
| Cc1cccc(N2CCN(c3ccc(C(=O)O)cc3NS(=O)(=O)c3cc(C)cc(C)c3)CC2C)c1 (stereo not drawn) [compound 100, Compound No.100] | 4.74 |
| CN(C)c1ccc(/C=C2\CCCC3C2=NN(C(=O)CCC(=O)O)C3c2ccc(N(C)C)cc2)cc1 (stereo not drawn) [compound 50, Compound No.50] | 4.58 |
